≈ marks a conversion by molar mass, not a printed value. Entries after “also recorded” stand apart in the source; their conditions may differ.
Legend:
ALDH1A1 = ALDH1A1 concentration by ELISA in Du145 cells; type: cell-based, human
Protocol: The effect of compounds WZ1–WZ4 on ALDHA1 levels was investigated (Figure 10). The Du145, HepG2 and 769-P cell lines were treated with the calculated IC25 values for each compound.
Selected cell lines, viz HepG2, Du145 and 769-P, were seeded into 6-well plates and incubated for 24 h after seeding with compounds at a concentration equal to IC25. After a further 24 h or 48 h, cells were detached with trypsin and centrifuged. The resulting cell pellet was resuspended in 0.5 mL PBS. The samples were then sonicated, and protein was determined using the Bradford method (Bio-rad; Hercules, CA, USA). Samples were equilibrated to 10 mg/mL of protein, and ALDH1A1 was determined in the samples prepared in this way. ALDH1A1 determination was performed using an ELISA (SEE824Hu; Cloud Clone Corp., Katy, TX, USA), according to the manufacturer’s protocol.

Gram-positive bacteria = experiment: Broth microdilution, summary over reference Gram-positive bacteria; type: cell-based; conditions: for share of reference Gram-positive strains with good activity: good activity: MIC 26–125 µg/mL; for share of reference Gram-positive strains with moderate activity: moderate activity: MIC 126–500 µg/mL; for MBC/MIC ratio: most Gram-positive bacteria
Text: (§1) Reference strains of microorganisms that came from American Type Culture Collection (ATCC) (Manassas, VA, USA) were used for this study. The representative Gram-positive bacteria were as follows: Staphylococcus aureus ATCC 25923, Staphylococcus aureus ATCC 29213, Staphylococcus aureus ATCC 43300, Staphylococcus epidermidis ATCC 12228, Enterococcus faecalis ATCC 29212, Micrococcus luteus ATCC 10240, Bacillus subtilis ATCC 6633 and Bacillus cereus ATCC 10876. While, those of Gram-negative bacteria were as follows: Bordetella bronchiseptica ATCC 4617, Escherichia coli ATCC 25922, Klebsiella pneumoniae ATCC 13883, Proteus mirabilis ATCC 12453, Salmonella Typhimurium ATCC 14028 and Pseudomonas aeruginosa ATCC 9027. Moreover, the following fungi belonging to yeasts were used: Candida albicans ATCC 10231, Candida albicans ATCC 2091, Candida parapsilosis ATCC 22019, Candida glabrata ATCC 90030 and Candida krusei ATCC 14243.
(§2) The new compounds WZ1–WZ4 were assayed for both antibacterial and antifungal activity using the broth microdilution method in accordance with the European Committee on Antimicrobial Susceptibility Testing (EUCAST) and Clinical and Laboratory Standards Institute (CLSI) guidelines. The microorganisms were grown at 35 °C for 18–24 h on appropriate media (nutrient agar and Sabouraud for bacteria and fungi, respectively) (BioMaxima S.A., Lublin, Poland). Next, microbial suspensions with an optical density of 0.5 McFarland standard scale (in sterile 0.85% NaCl) were prepared. In turn, the tested compounds were initially diluted at 50 mg/mL in dimethyl sulfoxide (DMSO) and the broth microdilution method was used to assess their minimum inhibitory concentrations (MICs). For these studies, selective broth Mueller-Hinton (MH) (BioMaxima S.A., Lublin, Poland) and RPMI (Roswell Park Memorial Institute) 1640 with MOPS (3-(N-Morpholino)propanesulfonic acid) (Sigma-Aldrich Chemicals, St. Louis, MO, USA) were used for bacteria and fungi, respectively. The antimicrobial effect of compounds WZ1–WZ4 was determined in the concentration range from 2000 to 0.98 µg/mL.
(§3) Then, the microbial suspensions were introduced into each well of the microplate and incubated for 18–24 h at 35 °C. […] The reference drugs ciprofloxacin or vancomycin (against bacteria) and nystatin (against fungi) (Sigma-Aldrich Chemicals, St. Louis, MO, USA) were also used. Next, the values of the minimum bactericidal concentration (MBC) and minimum fungicidal concentration (MFC) of WZ1–WZ4 were assessed. For this purpose, the cultures from each MIC determination well were transferred to a suitable solid medium and incubated under appropriate conditions. The lowest concentrations of compounds without microbial growth were read as MBC or MFC. The studies were performed in triplicate and representative data were gathered.
(§4) In turn, the MBC/MIC or MFC/MIC ratios were used to assess bactericidal/fungicidal (MBC/MIC or MFC/MIC ≤ 4) and bacteriostatic/fungistatic (MBC/MIC or MFC/MIC > 4) effect of these compounds [93].

[1] = system: Bordetella bronchiseptica ATCC 4617; experiment: Broth microdilution antimicrobial activity; type: cell-based; conditions: for MBC / MIC: ATCC4617
Text: as §1, §2, §3, §4

[2] = system: Staphylococcus epidermidis ATCC 12228; experiment: Broth microdilution antimicrobial activity; type: cell-based; conditions: for MBC / MIC: ATCC12228
Text: as §1, §2, §3, §4

[3] = system: Candida albicans ATCC 2091; experiment: Broth microdilution antimicrobial activity; type: cell-based; conditions: for MFC: ATCC2091, read-out: MFC; for MIC: ATCC2091, read-out: MIC
Text: as §1, §2, §3, §4

[4] = system: Proteus mirabilis ATCC 12453; experiment: Broth microdilution antimicrobial activity; type: cell-based; conditions: for MBC / MIC: ATCC12453
Text: as §1, §2, §3, §4

[5] = system: Pseudomonas aeruginosa ATCC 9027; experiment: Broth microdilution antimicrobial activity; type: cell-based; conditions: for MBC / MIC: ATCC9027
Text: as §1, §2, §3, §4

[6] = system: Candida glabrata ATCC 90030; experiment: Broth microdilution antimicrobial activity; type: cell-based; conditions: for MFC / MIC: Nakaseomyces glabratus; for MFC: ATCC90030, read-out: MFC; for MIC: ATCC90030, read-out: MIC
Text: as §1, §2, §3, §4

[7] = system: Klebsiella pneumoniae ATCC 13883; experiment: Broth microdilution antimicrobial activity; type: cell-based; conditions: for MBC / MIC: ATCC13883
Text: as §1, §2, §3, §4

[8] = system: Escherichia coli ATCC 25922; experiment: Broth microdilution antimicrobial activity; type: cell-based; conditions: for MBC / MIC: ATCC25922
Text: as §1, §2, §3, §4

[9] = system: Candida albicans ATCC 10231; experiment: Broth microdilution antimicrobial activity; type: cell-based; conditions: for MFC: ATCC10231, read-out: MFC; for MIC: ATCC10231, read-out: MIC
Text: as §1, §2, §3, §4

[10] = system: Bacillus cereus ATCC 10876; experiment: Broth microdilution antimicrobial activity; type: cell-based; conditions: for MBC / MIC: ATCC10876
Text: as §1, §2, §3, §4

[11] = system: Micrococcus luteus ATCC 10240; experiment: Broth microdilution antimicrobial activity; type: cell-based; conditions: for MBC / MIC: ATCC10240
Text: as §1, §2, §3, §4

[12] = system: Staphylococcus aureus ATCC 25923; experiment: Broth microdilution antimicrobial activity; type: cell-based; conditions: for MBC / MIC: ATCC25923
Text: as §1, §2, §3, §4

Candida spp. = experiment: Broth microdilution, summary over reference Candida spp.; type: cell-based; conditions: for MFC: Candida, yeasts; for MFC/MIC: reference yeasts, except WZ4 towards C. parapsilosis
Text: as §1, §2, §3, §4

[13] = almost all Gram-positive bacteria

In the case of CNC(=S)NNS(=O)(=O)c1ccccc1 [WZ4, 2-(Benzenesulfonyl)-N-Methylhydrazine-1-Carbothioamide], the “ALDH1A1 concentration compared to control” value (ALDH1A1; compound at IC25, 24 h) was “decrease”, the “ALDH1A1 concentration compared to control” value (ALDH1A1; compound at IC25, 48 h) was “decrease; also recorded: significantly reduced” and the MIC (Gram-positive bacteria; Staphylococcus aureus ATCC 43300, Staphylococcus aureus ATCC 25923 and Micrococcus luteus) was 250 to 500 µg/mL (≈ 1020 to 2040 µM). For the same compound, the MIC (Gram-positive bacteria; Staphylococcus epidermidis, Bacillus subtilis and Bacillus cereus) was 62.5 to 125 µg/mL (≈ 255 to 510 µM), the MIC (Gram-positive bacteria; [13]) was 62.5 to 500 µg/mL (≈ 255 to 2040 µM) and the “share of reference Gram-positive strains with good activity” value (Gram-positive bacteria; 8 strains) was 37.5%. The “share of reference Gram-positive strains with mild activity” value (Gram-positive bacteria; mild activity: MIC 501–1000 µg/mL, 8 strains) was 25%, the “share of reference Gram-positive strains with moderate activity” value (Gram-positive bacteria; 8 strains) was 37.5% and the MBC/MIC ratio (Gram-positive bacteria) was 1–4. The MBC/MIC [1] was over 1, the MBC [1] was over 2000 µg/mL and the MIC [1] was over 2000 µg/mL. For the same compound, the MBC/MIC [2] was 4, the MBC [2] was 500 µg/mL (≈ 2040 µM) and the MIC [2] was 125 µg/mL (≈ 510 µM). It also gave an MFC/MIC [3] of 4, an MFC [3] of 1000 µg/mL (≈ 4080 µM) and an MIC [3] of 250 µg/mL (≈ 1020 µM). The MBC/MIC [4] was over 1, the MBC [4] was over 2000 µg/mL and the MIC [4] was over 2000 µg/mL. For the same compound, the MBC/MIC [5] was over 1, the MBC [5] was over 2000 µg/mL and the MIC [5] was over 2000 µg/mL. For the same compound, the MFC/MIC [6] was 4, the MFC [6] was 500 µg/mL (≈ 2040 µM) and the MIC [6] was 125 µg/mL (≈ 510 µM). It also gave an MBC/MIC [7] of over 1, an MBC [7] of over 2000 µg/mL and an MIC [7] of over 2000 µg/mL. It also gave an MBC/MIC [8] of over 1, an MBC [8] of over 2000 µg/mL and an MIC [8] of over 2000 µg/mL. For the same compound, the MFC/MIC [9] was 2, the MFC [9] was 1000 µg/mL (≈ 4080 µM) and the MIC [9] was 500 µg/mL (≈ 2040 µM). The MBC/MIC [10] was 2, the MBC [10] was 125 µg/mL (≈ 510 µM) and the MIC [10] was 62.5 µg/mL (≈ 255 µM). For the same compound, the MBC/MIC [11] was 2, the MBC [11] was 500 µg/mL (≈ 2040 µM) and the MIC [11] was 250 µg/mL (≈ 1020 µM). It also gave an MBC/MIC [12] of over 4, an MBC [12] of over 2000 µg/mL and an MIC [12] of 500 µg/mL (≈ 2040 µM). It also gave an MIC (Candida spp.; C. albicans and C. krusei) of 250 to 500 µg/mL (≈ 1020 to 2040 µM), an MFC (Candida spp.) of 500 to 2000 µg/mL (≈ 2040 to 8150 µM) and an MIC (Candida spp.; reference Candida spp.) of 125 to 2000 µg/mL (≈ 510 to 8150 µM). For the same compound, the MFC/MIC (Candida spp.) was 1–4.
CCCCCCNC(=S)NNS(=O)(=O)c1ccccc1 [WZ3, 2-(Benzenesulfonyl)-N-Hexylhydrazine-1-Carbothioamide] was tested, and the “ALDH1A1 concentration compared to control” value (ALDH1A1; compound at IC25, 48 h) was “decrease; also recorded: significantly reduced”, the MIC (Gram-positive bacteria; Bacillus subtilis, remaining Gram-positive microorganisms (other than B. subtilis)) was 250 to 500 µg/mL (≈ 792 to 1580 µM) and the MIC (Gram-positive bacteria; [13]) was 62.5 to 500 µg/mL (≈ 198 to 1580 µM). The “share of reference Gram-positive strains with good activity” value (Gram-positive bacteria; 8 strains) was 12.5%, the “share of reference Gram-positive strains with moderate activity” value (Gram-positive bacteria; 8 strains) was 87.5% and the MBC/MIC ratio (Gram-positive bacteria) was 1–4. For the same compound, the MBC/MIC [1] was over 4, the MBC [1] was over 2000 µg/mL and the MIC [1] was 500 µg/mL (≈ 1580 µM). The MBC/MIC [2] was 1, the MBC [2] was 250 µg/mL (≈ 792 µM) and the MIC [2] was 250 µg/mL (≈ 792 µM). It also gave an MFC/MIC [3] of 2, an MFC [3] of 1000 µg/mL (≈ 3170 µM) and an MIC [3] of 500 µg/mL (≈ 1580 µM). The MBC/MIC [4] was over 2, the MBC [4] was over 2000 µg/mL and the MIC [4] was 1000 µg/mL (≈ 3170 µM). It also gave an MBC/MIC [5] of 1, an MBC [5] of 1000 µg/mL (≈ 3170 µM) and an MIC [5] of 1000 µg/mL (≈ 3170 µM). For the same compound, the MFC/MIC [6] was 1, the MFC [6] was 2000 µg/mL (≈ 6340 µM) and the MIC [6] was 2000 µg/mL (≈ 6340 µM). The MBC/MIC [7] was over 2, the MBC [7] was over 2000 µg/mL and the MIC [7] was 1000 µg/mL (≈ 3170 µM). The MBC/MIC [8] was over 4, the MBC [8] was over 2000 µg/mL and the MIC [8] was 500 µg/mL (≈ 1580 µM). It also gave an MFC/MIC [9] of 2, an MFC [9] of 1000 µg/mL (≈ 3170 µM) and an MIC [9] of 500 µg/mL (≈ 1580 µM). The MBC/MIC [10] was 1, the MBC [10] was 250 µg/mL (≈ 792 µM) and the MIC [10] was 250 µg/mL (≈ 792 µM). It also gave an MBC/MIC [11] of 2, an MBC [11] of 500 µg/mL (≈ 1580 µM) and an MIC [11] of 250 µg/mL (≈ 792 µM). The MBC/MIC [12] was 4, the MBC [12] was 1000 µg/mL (≈ 3170 µM) and the MIC [12] was 250 µg/mL (≈ 792 µM). For the same compound, the MIC (Candida spp.; C. albicans and C. krusei) was 250 to 500 µg/mL (≈ 792 to 1580 µM), the MFC (Candida spp.) was 500 to 2000 µg/mL (≈ 1580 to 6340 µM) and the MIC (Candida spp.; reference Candida spp.) was 125 to 2000 µg/mL (≈ 396 to 6340 µM). For the same compound, the MFC/MIC (Candida spp.) was 1–4.

Reference: PMC10747733, “N-Substituted 2-(Benzenosulfonyl)-1-Carbotioamide Derivatives Exert Antimicrobial and Cytotoxic Effects via Aldehyde Dehydrogenase Pathway: Synthesis, In Silico and In Vitro Studies” (Pharmaceuticals, 2023)
